Assay results as given in US9555021B2, “Pharmaceutical compositions comprising (3-(1-(1H-imidazol-4-yl)ethyl)-2-methylphenyl)methanol” (Allergan, Inc., priority 2009, dated 2017).

Key:
[1] = molecular target: T1, alpha-1B adrenergic receptor (Homo sapiens, UniProt P35368); assay: FLIPR assay (intracellular calcium), alpha-1B adrenergic receptor; assay type: cell-based; conditions: unit inferred; for EC50: first line of cell, compounds tested at 0.64 nM-10,000 nM, read-out: α-1B agonism EC50; for IC50: second line of cell, read-out: α-1B antagonism IC50
T1 sequence (P35368 1-520): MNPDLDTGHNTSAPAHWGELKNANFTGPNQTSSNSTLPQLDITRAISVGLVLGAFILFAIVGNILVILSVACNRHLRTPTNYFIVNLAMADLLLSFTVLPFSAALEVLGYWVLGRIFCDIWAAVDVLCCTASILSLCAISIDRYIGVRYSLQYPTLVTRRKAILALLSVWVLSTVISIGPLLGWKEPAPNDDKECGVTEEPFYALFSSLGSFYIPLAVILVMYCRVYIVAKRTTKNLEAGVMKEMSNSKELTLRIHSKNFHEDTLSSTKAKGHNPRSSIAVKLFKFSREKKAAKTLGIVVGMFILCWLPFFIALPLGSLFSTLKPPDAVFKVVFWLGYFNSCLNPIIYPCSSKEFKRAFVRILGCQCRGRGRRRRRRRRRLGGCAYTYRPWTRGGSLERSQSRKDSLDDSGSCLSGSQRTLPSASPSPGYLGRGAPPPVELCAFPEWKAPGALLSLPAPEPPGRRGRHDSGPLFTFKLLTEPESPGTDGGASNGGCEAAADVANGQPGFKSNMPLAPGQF
Protocol: (§1) Compounds of the invention were evaluated in a FLIPR assay in order to determine their specificity for five alpha adrenergic receptors. The FLIPR assay measures release of intracellular calcium in response to receptor activation. Cells are preloaded with a calcium sensitive dye that fluoresces in response to calcium. Receptors that activate the G protein, Gq, elicit the response. Alpha adrenergic receptors, which normally couple to Gi, trigger the increase in intracellular calcium when coexpressed with a hybrid Gq protein containing a Gi receptor recognition domain, designated Gq/i5 (Conklin et al., Nature 363:274-6 (1993)) or with the promiscuous G protein Ga16.
(§2) The assay was performed essentially as follows. HEK 293 cells stably expressing an alpha-2 receptor and either the chimeric G-protein Gqi5 or the promiscuous G protein G16 were plated in poly-D-lysine coated 384-well plates at 20,000-25,000 cells per well and grown overnight in DMEM supplemented with 10% FBS. Cells were washed twice with HBSS/HEPES Buffer (1× Hanks Buffered Salt Solution, 20 mM HEPES, pH 7.4) prior to the addition of Fluo-4-AM (4 μM Fluo-4-AM, 0.04% pluronic acid in HBSS/HEPES Buffer), a calcium-sensitive dye. Cells were loaded with dye for 60 minutes at 37° C., then washed 4 times with HBSS/HEPES Buffer. The reaction was initiated by the addition of the appropriate dilutions of compounds (final concentration between 0.64 nM-10,000 nM) and the transient calcium signal captured. The peak height of the calcium curve was determined and utilized for calculation of EC50 and efficacy using ActivityBase.

mice [2] = assay: Locomotor activity (sedation); assay type: in vivo; conditions: 30 minutes after dosing
[3] = molecular target: T2, alpha-2C adrenergic receptor (Homo sapiens, UniProt P18825); assay: FLIPR assay (intracellular calcium), alpha-2C adrenergic receptor; assay type: cell-based; conditions: for alpha-2C activity in words (agonist/antagonist): Table 2; for α-2C relative efficacy as compared to norepinephrine: agonism, value in parenthesis; for EC50: first line of cell, unit inferred, compounds tested at 0.64 nM-10,000 nM, read-out: α-2C agonism EC50
T2 construct: expressed in transfected cells
T2 sequence (P18825 1-462): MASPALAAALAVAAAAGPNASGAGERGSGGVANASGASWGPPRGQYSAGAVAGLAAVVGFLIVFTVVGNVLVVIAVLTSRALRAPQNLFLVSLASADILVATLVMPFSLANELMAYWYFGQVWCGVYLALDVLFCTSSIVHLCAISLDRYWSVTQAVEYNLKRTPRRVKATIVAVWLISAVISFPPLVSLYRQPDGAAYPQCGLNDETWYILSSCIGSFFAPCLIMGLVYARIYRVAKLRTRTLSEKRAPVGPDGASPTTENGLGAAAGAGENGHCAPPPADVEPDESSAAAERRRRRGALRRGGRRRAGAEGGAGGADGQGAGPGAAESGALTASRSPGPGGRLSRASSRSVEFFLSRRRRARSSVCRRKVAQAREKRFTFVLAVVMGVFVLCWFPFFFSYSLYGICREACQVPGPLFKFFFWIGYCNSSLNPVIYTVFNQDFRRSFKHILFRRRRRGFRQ
Protocol: as §1, §2

mice [4] = assay: Sulprostone-induced tactile hypersensitivity; assay type: in vivo; conditions: 0.3 mg/kg intraperitoneally 15 minutes prior to sulprostone
Protocol: The tactile hypersensitivity of 5-6 mice (weighing approx. 25 g) per group was scored every five minutes between 15 and 50 minutes following intraperitoneal dosing with 300 ng/kg (in a 1 mL/kg volume) sulprostone (Cayman Chemical Company, Ann Arbor, Mich.).
(§3) Tactile hypersensitivity was quantified by scoring the response of mice to light stroking of their flanks with a small paintbrush, which is not normally painful.

[5] = molecular target: T3, alpha-1A adrenergic receptor (Homo sapiens, UniProt P35348); assay: FLIPR assay (intracellular calcium), alpha-1A adrenergic receptor; assay type: cell-based; conditions: for alpha-1A activity in words (agonist/antagonist): Table 2; for α-1A relative efficacy as compared to norepinephrine: agonism; for EC50: first line of cell, HEK 293 cells, unit inferred, compounds tested at 0.64 nM-10,000 nM, read-out: α-1A agonism EC50
T3 sequence (P35348 1-466): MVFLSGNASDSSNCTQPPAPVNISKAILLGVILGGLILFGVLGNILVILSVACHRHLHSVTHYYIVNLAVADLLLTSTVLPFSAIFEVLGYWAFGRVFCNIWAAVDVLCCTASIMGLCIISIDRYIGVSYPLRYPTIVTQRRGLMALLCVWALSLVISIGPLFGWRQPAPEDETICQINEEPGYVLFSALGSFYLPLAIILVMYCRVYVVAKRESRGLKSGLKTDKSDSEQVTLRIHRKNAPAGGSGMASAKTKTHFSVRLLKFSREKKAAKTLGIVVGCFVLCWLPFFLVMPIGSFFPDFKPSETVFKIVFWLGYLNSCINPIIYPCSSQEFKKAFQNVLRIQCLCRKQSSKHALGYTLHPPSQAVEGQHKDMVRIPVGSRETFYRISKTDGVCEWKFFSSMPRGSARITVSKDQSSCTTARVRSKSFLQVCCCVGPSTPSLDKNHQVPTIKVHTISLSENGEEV
Protocol: as §1, §2

[6] = molecular target: T4, alpha-2A adrenergic receptor (Homo sapiens, UniProt P08913); assay: FLIPR assay (intracellular calcium), alpha-2A adrenergic receptor; assay type: cell-based; conditions: for alpha-2A activity in words (agonist/antagonist): Table 2; for α-2A relative efficacy as compared to norepinephrine: agonism; for EC50: first line of cell, compounds tested at 0.64 nM-10,000 nM, read-out: α-2A agonism EC50
T4 construct: expressed in transfected cells
T4 sequence (P08913 1-465): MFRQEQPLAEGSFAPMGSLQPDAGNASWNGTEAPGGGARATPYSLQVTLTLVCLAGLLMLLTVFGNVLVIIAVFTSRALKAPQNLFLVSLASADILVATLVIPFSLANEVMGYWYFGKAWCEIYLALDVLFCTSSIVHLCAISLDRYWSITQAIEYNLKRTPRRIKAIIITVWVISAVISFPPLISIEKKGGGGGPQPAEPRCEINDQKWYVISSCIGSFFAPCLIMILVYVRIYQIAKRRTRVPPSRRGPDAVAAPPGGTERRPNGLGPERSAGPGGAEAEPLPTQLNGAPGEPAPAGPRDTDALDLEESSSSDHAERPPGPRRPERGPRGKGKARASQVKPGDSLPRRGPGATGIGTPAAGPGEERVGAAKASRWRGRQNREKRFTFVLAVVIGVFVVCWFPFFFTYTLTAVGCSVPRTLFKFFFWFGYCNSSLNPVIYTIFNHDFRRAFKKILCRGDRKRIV
Protocol: as §1, §2

[7] = FIG. 3 / FIG. 4
Protocol: The tactile hypersensitivity of 5-6 mice (weighing approx. 25 g) per group was scored every five minutes between 15 and 50 minutes following intraperitoneal dosing with 300 ng/kg (in a 1 mL/kg volume) sulprostone (Cayman Chemical Company, Ann Arbor, Mich.). Compound I or vehicle was administered intraperitoneally 15 minutes prior to sulprostone.
as §3
The computer analyses this movement and records total activity. Locomotor activity relative to vehicle-treated animals was expressed as a percentage; percentage sedation was calculated as 100% minus the percent locomotor activity. Statistical calculations of significance for in vivo studies were done using a two-tailed Student's t-test.

[8] = molecular target: T5, alpha-2B adrenergic receptor (Homo sapiens, UniProt P18089); assay: FLIPR assay (intracellular calcium), alpha-2B adrenergic receptor; assay type: cell-based; conditions: for alpha-2B activity in words (agonist/antagonist): Table 2; for α-2B relative efficacy as compared to norepinephrine: agonism, value in parenthesis; for EC50: first line of cell, unit inferred, compounds tested at 0.64 nM-10,000 nM, read-out: α-2B agonism EC50
T5 construct: expressed in transfected cells
T5 sequence (P18089 1-450): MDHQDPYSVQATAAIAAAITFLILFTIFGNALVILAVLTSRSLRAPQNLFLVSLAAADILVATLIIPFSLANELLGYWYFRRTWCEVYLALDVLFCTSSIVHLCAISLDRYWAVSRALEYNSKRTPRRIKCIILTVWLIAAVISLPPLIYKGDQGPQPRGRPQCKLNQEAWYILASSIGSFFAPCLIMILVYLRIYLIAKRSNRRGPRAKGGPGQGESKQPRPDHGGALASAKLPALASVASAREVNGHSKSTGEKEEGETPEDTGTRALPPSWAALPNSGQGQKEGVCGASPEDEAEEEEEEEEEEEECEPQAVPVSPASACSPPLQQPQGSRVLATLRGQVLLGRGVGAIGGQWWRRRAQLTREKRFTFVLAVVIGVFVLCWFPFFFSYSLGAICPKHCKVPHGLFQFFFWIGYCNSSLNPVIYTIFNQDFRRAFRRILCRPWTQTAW
Protocol: as §1, §2

mice [9] = conditions: as described in Gil et al., Br J Pharmacol 153: 769-74 (2008); cited from earlier work
[10] = second line of cell, value in parenthesis

Cc1c(CO)cccc1C(C)c1c[nH]cn1 (racemic) [Compound I, (3-(1-(1H-imidazol-4-yl)ethyl)-2-methylphenyl)methanol]
EC50 [1]: > 10 µM
IC50 [1]: > 8.3 µM
sedation (locomotor activity) (mice [2]; 1 mg/kg intraperitoneal): minimally sedating
sedation (locomotor activity) (mice [2]; 3 mg/kg intraperitoneal): highly sedating
alpha-2C activity in words (agonist/antagonist) [3]: alpha-2 pan agonist
α-2C relative efficacy as compared to norepinephrine [3]: (.98)
EC50 [3]: 15.7 nM
reduction in sulprostone induced hypersensitivity (mice [4]): back to control levels
alpha-1A activity in words (agonist/antagonist) [5]: some alpha-1A agonist activity
α-1A relative efficacy as compared to norepinephrine ([5]; value in parenthesis): (.69)
EC50 [5]: 1630 nM
alpha-2A activity in words (agonist/antagonist) [6]: alpha-2 pan agonist
α-2A relative efficacy as compared to norepinephrine ([6]; value in parenthesis): (.75)
EC50 ([6]; unit inferred): 53.7 nM
margin of safety for pain reduction vs. sedation [7]: > 10 fold
alpha-2B activity in words (agonist/antagonist) [8]: alpha-2 pan agonist
α-2B relative efficacy as compared to norepinephrine [8]: (.94)
EC50 [8]: 5.5 nM

Cc1c(CO)cccc1[C@@H](C)c1c[nH]cn1 [Compound II, (R)-(3-(1-(1H-imidazol-4-yl)ethyl)-2-methylphenyl)methanol]
EC50 [1]: > 10 µM
IC50 [1]: > 8.3 µM
alpha-2C activity in words (agonist/antagonist) [3]: agonist
α-2C relative efficacy as compared to norepinephrine [3]: (.64)
EC50 [3]: 171 nM
EC50 [5]: > 10000 nM
α-1A percent antagonism [5, 10]: (39%)
alpha-2A activity in words (agonist/antagonist) [6]: antagonist
EC50 ([6]; unit inferred): > 10000 nM
α-2A percent antagonism [6, 10]: (96%)
IC50 ([6]; second line of cell, unit inferred, read-out: α-2A antagonism IC50): 144 nM
alpha-2B activity in words (agonist/antagonist) [8]: agonist
α-2B relative efficacy as compared to norepinephrine [8]: (.68)
EC50 [8]: 52.8 nM

Cc1c(CO)cccc1[C@H](C)c1c[nH]cn1 [Compound III, (S)-(3-(1-(1H-imidazol-4-yl)ethyl)-2-methylphenyl)methanol]
EC50 [1]: > 8.3 µM
alpha-2C activity in words (agonist/antagonist) [3]: alpha-2 pan agonist
α-2C relative efficacy as compared to norepinephrine [3]: (1)
EC50 [3]: 8 nM
alpha-1A activity in words (agonist/antagonist) [5]: some alpha-1A agonist activity
α-1A relative efficacy as compared to norepinephrine ([5]; value in parenthesis): (.76)
EC50 [5]: 445 nM
alpha-2A activity in words (agonist/antagonist) [6]: alpha-2 pan agonist
α-2A relative efficacy as compared to norepinephrine ([6]; value in parenthesis): (.9)
EC50 ([6]; unit inferred): 72 nM
alpha-2B activity in words (agonist/antagonist) [8]: alpha-2 pan agonist
α-2B relative efficacy as compared to norepinephrine [8]: (.93)
EC50 [8]: 3 nM

CN(C)CCC=C1c2ccccc2CCc2ccccc21 [amitriptyline]
activity in sulprostone-induced tactile hypersensitivity model (mice [9]): active

Cc1cccc([C@H](C)c2cnc[nH]2)c1C [dexmedetomidine]
margin of safety for pain reduction vs. sedation [7]: no margin of safety

NCC1(CC(=O)O)CCCCC1 [gabapentin]
activity in sulprostone-induced tactile hypersensitivity model (mice [9]): active
